Columns and labels:
5α-reductase 1 = target: T1, 5α-reductase 1 (Homo sapiens, UniProt P18405); test: Inhibition of type 1 5α-reductase (14C-testosterone to DHT conversion, lysate of transfected COS7 cells); format: biochemical; settings: for IC50: pH 6.5 phosphate buffer, 1 nM 14C-testosterone, 5 mM NADPH, 50 minutes at 37° C., read-out: 5α-reductases: IC50 Type I; for quality as inhibitor of 5α-reductase (in words): statement covers both types of 5α-reductase; for specificity with respect to type 1 5α-reductase (in words): type 1 versus type 2
T1 construct: made in house; host or cells: COS7 cells (ATCC, CRL 1651), transient transfection with pSG5; 100,000 x g pellet of the lysate
T1 sequence (P18405 1-259): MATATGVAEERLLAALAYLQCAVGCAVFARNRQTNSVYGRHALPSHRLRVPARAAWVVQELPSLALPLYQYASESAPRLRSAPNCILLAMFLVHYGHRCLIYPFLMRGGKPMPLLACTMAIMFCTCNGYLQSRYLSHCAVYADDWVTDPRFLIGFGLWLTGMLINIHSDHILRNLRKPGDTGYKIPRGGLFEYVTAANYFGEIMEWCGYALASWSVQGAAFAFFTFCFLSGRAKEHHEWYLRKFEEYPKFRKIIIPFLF
Description: (§1) The coding sequences (complementary deoxyribonucleic acids: cDNA) of 5α-reductase 1 and of 5α-reductase 2 were cloned in the eukaryotic expression vector pSG5 (Stratagene). The enzymes were over-expressed after transient transfection of COS7 cells (ATCC, CRL 1651). The cDNAs of 5α-reductase 1 and of 5α-reductase 2 were obtained by reverse transcription and polymerase chain reaction (PCR) using specific primers, starting with total RNA from human testicles (sold by the company Clontech).
The primers used to obtain the 5α-reductase 1 cDNA are:
+ strand: 5′ […] 3′,
− strand: 5′ […] 3′.
(§2) By standard genetic engineering techniques, the 5α-reductase 1 cDNA obtained was inserted into the BamHI site of pSG5 and that of 5α-reductase 2 was inserted into the EcoRI site (see Maniatis et al., Molecular Cloning, Cold Spring Harbor, 1989).
(§3) The positive clones (recombinants) were identified by the hybridization technique with a cold probe (Plex luminescent kits, Millipore) and mapped by enzymatic digestions and partial sequencing.
(§4) After transient transfection, the COS7 cells are lysed in a 10 mM Tris-HCl, pH=7/150 mM KCl/1 mM EDTA buffer by 3 cycles of freezing/thawing. The homogenate is centrifuged at 100,000× g for 1 hour. The pellets containing the 5α-reductase 1 or the 5α-reductase 2 are taken up in a 40 mM, pH 6.5 phosphate buffer or a 40 mM, pH 5.5 citrate buffer for the 5α-reductase 1 or 5α-reductase 2, respectively.
(§5) 5 μg of proteins thus obtained are incubated in a well of a 96-well plate (NUNC) in the presence of 1 nM ^14C-testosterone (Amersham) and 5 mM nicotinamide […] dinucleotide phosphate, reduced form (NADPH) (Sigma) in the corresponding buffer (40 mM, pH 6.5 phosphate buffer or 40 mM, pH 5.5 citrate buffer for the 5α-reductase 1 or 5α-reductase 2, respectively) for 50 minutes at 37° C. after addition of the test products. The test products are added at concentrations of 10^−4 M to 10^−10 M, diluted in 40 mM, pH 6.5 phosphate buffer or 40 mM, pH 5.5 citrate buffer for the 5α-reductase 1 or 5α-reductase 2, respectively.
(§6) The reaction mixtures are then placed directly on a silica plate (HPTLC, 60F 254, Merck) and subjected to chromatography (solvent=10% diethyl ether, 90% dichloromethane). They are then analysed by digital autoradiography (Berthold).
(§7) The inhibition of the activity of the isoenzymes is measured by calculating the percentage of dihydrotestosterone formed from ^14C-testosterone relative to an untreated control.

5α-reductase 2 = target: T2, 5α-reductase 2 (Homo sapiens, UniProt P31213); test: Inhibition of type 2 5α-reductase (14C-testosterone to DHT conversion, lysate of transfected COS7 cells); format: biochemical; settings: for IC50: pH 5.5 citrate buffer, 1 nM 14C-testosterone, 5 mM NADPH, 50 minutes at 37° C., read-out: 5α-reductases: IC50 Type II; for specificity for the type 2 5α-reductase (in words): type 2 versus type 1
T2 construct: made in house; host or cells: COS7 cells (ATCC, CRL 1651), transient transfection with pSG5; 100,000 x g pellet of the lysate
T2 sequence (P31213 1-254): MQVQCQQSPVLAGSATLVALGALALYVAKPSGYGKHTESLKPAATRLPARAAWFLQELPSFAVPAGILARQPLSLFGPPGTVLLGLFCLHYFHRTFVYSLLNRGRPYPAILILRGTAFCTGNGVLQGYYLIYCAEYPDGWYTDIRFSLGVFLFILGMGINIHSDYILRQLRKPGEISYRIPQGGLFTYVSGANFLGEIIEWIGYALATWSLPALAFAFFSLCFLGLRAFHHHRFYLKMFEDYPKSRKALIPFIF
Description: as §1
The primers used to obtain the 5α-reductase 2 cDNA are:
+ strand: 5′ GCGATGCAGGTTCAGTG 3′
− strand: 5′ ATTGTGGGAGCTCTGCT 3′.
as §2, §3, §4, §5, §6, §7

IC50 (5α-reductase 1) [nM]	IC50 (5α-reductase 2) [nM]	Structure (SMILES)	quality as inhibitor of 5α-reductase (in words) (5α-reductase 1)	specificity with respect to type 1 5α-reductase (in words) (5α-reductase 1)	specificity for the type 2 5α-reductase (in words) (5α-reductase 2)
1000 to 4000	> 100000	COc1cc(OCc2ccccc2)c2cc(C(=O)O)[nH]c2c1 [Example 1, 4-benzyloxy-6-methoxy-1H-indole-2-carboxylic acid]		very pronounced specificity with respect to type 1 5α-reductase	
500	1 to 5	COc1cc2[nH]c(C(=O)O)cc2cc1OCc1cc(C(F)(F)F)cc(C(F)(F)F)c1 [Example 3, 5-[3,5-bis(trifluoromethyl)benzyloxy]-6-methoxy-1H-indole-2-carboxylic Acid]	very good inhibitors of the two types of 5α-reductase		
> 100000	10	COc1cc2[nH]c(C(=O)O)cc2cc1OCc1cc(OC)c(OC)c(OC)c1 [Example 4, 5-(3,4,5-trimethoxybenzyloxy)-6-methoxy-1H-indole-2-carboxylic acid]			more pronounced specificity for the type 2 5α-reductase
1000 to 5000	10	COc1ccc(COc2cc3cc(C(=O)O)[nH]c3cc2OC)cc1 [Example 5, 5-(4-methoxybenzyloxy)-6-methoxy-1H-indole-2-carboxylic acid]	very good inhibitors of the two types of 5α-reductase		
3000	6000	O=C(O)c1cc2c(ccc3ccccc32)[nH]1 [Example 7, 3H-benz[e]indole-2-carboxylic acid]		pronounced specificity with respect to type 1 5α-reductase	
500	10000	Cn1c(C(=O)O)cc2c3ccccc3ccc21 [Example 8, 3-methyl-3H-benz[e]indole-2-carboxylic Acid]		pronounced specificity with respect to type 1 5α-reductase	
> 100000	5	O=C(O)c1cc2cc(OCc3ccccc3)c(OCc3ccccc3)cc2[nH]1 [c, 5,6-bis(benzyloxy)-1H-indole-2-carboxylic acid]			more pronounced specificity for the type 2 5α-reductase

Further lines, the compound ahead of its results:

Structure (SMILES)	IC50 (5α-reductase 1) [nM]	IC50 (5α-reductase 2) [nM]	quality as inhibitor of 5α-reductase (in words) (5α-reductase 1)	specificity with respect to type 1 5α-reductase (in words) (5α-reductase 1)	specificity for the type 2 5α-reductase (in words) (5α-reductase 2)
Cc1c(C(=O)O)[nH]c2cc(OCc3ccccc3)c(OCc3ccccc3)cc12 [Compound b, 5,6-bis(benzyloxy)-3-methyl-1H-indole-2-carboxylic acid]	> 100000	1000	moderate inhibitor	more pronounced specificity for the type 1 5α-reductase	
COc1cc(OCc2cc(C(F)(F)F)cc(C(F)(F)F)c2)c2cc(C(=O)O)[nH]c2c1 [Example 2, 4-[3,5-bis(trifluoromethyl)benzyloxy]-6-methoxy-1H-indole-2-carboxylic acid]	10000	> 100000		very pronounced specificity with respect to type 1 5α-reductase	
COc1cc2[nH]c(C(=O)O)cc2cc1OCc1ccc(C#N)cc1 [Example 6, 5-(4-cyanobenzyloxy)-6-methoxy-1H-indole-2-carboxylic acid]	5000	40	very good inhibitors of the two types of 5α-reductase		
COc1cc2[nH]c(C(=O)O)cc2cc1OCc1ccccc1 [a, 5-benzyloxy-6-methoxy-1H-indole-2-carboxylic acid]	1000	1	very good inhibitors of the two types of 5α-reductase		

From patent publication US6596753B2, “Compounds of the indolecarboxylic family and use thereof” (Societe L'Oreal S.A., priority 1997, dated 2003)
